# Measurements reported in patent US10106534B2 (CELGENE QUANTICEL RESEARCH, INC., priority 2014, dated 2018).
# What was measured:
# [1] = test system: KYSE-150 esophageal carcinoma cell line; assay: In vitro cell-based assay: cellular proliferation via BrdU incorporation (ELISA); design: species or system human; conditions: Homo sapiens, KYSE-150, 168 hours compound incubation
# Procedure: The primary cellular assay for JMJD2C inhibition is an assay which measures cellular proliferation via Bromodeoxyuridine (BrdU) incorporation after 168 hours of compound incubation. Cell lines tested include the JMJD2C gene amplified cell line KYSE-150. This is a quantitative ELISA assay measuring DNA incorporation of BrdU during S-phase as a direct readout of cellular proliferation.
# Assay Principle: This is a colorimetric immunoassay for the quantification of cell proliferation. Cells treated for 168 hours with test compounds are assayed for their ability to go through S-phase as a measure of their proliferative potential.
# Assay Method: The human KYSE-150 (SMAD4 mut, TP53 mut) esophageal carcinoma cell line was seeded at 2,000 cells/well on a 96-well tissue culture treated plate. After an overnight incubation, cells were treated with compound in an 11-point dilution series with final concentrations ranging from 100 μM to 2 nM. Cells were then incubated in the presence of compound for 168 hours. After compound incubation the cells were assayed using a BrdU Cell Proliferation ELISA (Roche). The cells were first incubated with BrdU labeling reagent for 2 hours. After 2 hours, the BrdU incorporated cells were fixed and denatured, probed with an anti-BrdU-Peroxidase antibody for 1.5 hours and washed. Finally, a tetramethylbenzidine peroxidase substrate was added to each well for 15 minutes followed by a H2SO4 stop solution. The plate was read at 450 nm, and the raw optical density data was transferred into XLFit (IDBS) for IC50 calculation using the formula: fit=(D+((Vmax*(x^n))/((x^n)+(Km^n))))
# JMJD2C = JMJD2C (Homo sapiens (Human), UniProt Q9H3R0); assay: In vitro enzyme inhibition assay for JMJD2C activity (TR-FRET); assay type: biochemical
# JMJD2C, sequence (Q9H3R0 2-372): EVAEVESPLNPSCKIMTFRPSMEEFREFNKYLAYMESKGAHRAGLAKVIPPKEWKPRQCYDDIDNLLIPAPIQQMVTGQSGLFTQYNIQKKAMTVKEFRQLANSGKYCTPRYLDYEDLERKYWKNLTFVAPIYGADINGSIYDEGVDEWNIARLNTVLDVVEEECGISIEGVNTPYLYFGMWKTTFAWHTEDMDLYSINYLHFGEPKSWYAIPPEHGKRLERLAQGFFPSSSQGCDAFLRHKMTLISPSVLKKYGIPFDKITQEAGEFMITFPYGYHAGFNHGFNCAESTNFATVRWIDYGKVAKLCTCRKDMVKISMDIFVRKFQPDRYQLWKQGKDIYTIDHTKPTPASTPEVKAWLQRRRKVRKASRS
# Procedure: This assay determines the ability of a test compound to inhibit JMJD2C demethylase activity. Baculovirus expressed JMJD2C (GenBank Accession #BC143571, AA 2-372) was purchased from BPS Bioscience (Cat#50105).
# The ability of test compounds to inhibit the activity of JMJD2C was determined in 384-well plate format under the following reaction conditions: 0.3 nM JMJD2C, 300 nM H3K9me3-biotin labeled peptide (Anaspec cat #64360), 2 μM alpha-ketoglutaric acid in assay buffer of 50 mM HEPES, pH7.3, 0.005% Brij35, 0.5 mM TCEP, 0.2 mg/ml BSA, 50 μM sodium L-ascorbate, and 2 μM ammonium iron(II) sulfate. Reaction product was determined quantitatively by TR-FRET after the addition of detection reagent Phycolink Streptavidin-allophycocyanin (Prozyme) and Europium-anti-di-methylated histone H3 lysine 9 (H3K9me2) antibody (PerkinElmer) in the presence of 5 mM EDTA in LANCE detection buffer (PerkinElmer) at a final concentration of 50 nM and 1 nM, respectively.
# The assay reaction was initiated by the following: 2 μl of the mixture of 900 nM H3K9me3-biotin labeled peptide and 6 μM alpha-ketoglutaric acid with 2 μl of 11-point serial diluted inhibitor in 3% DMSO were added to each well of the plate, followed by the addition of 2 μl of 0.9 nM JMJD2C to initiate the reaction. The reaction mixture was incubated at room temperature for 30 minutes, and terminated by the addition of 6 μl of 5 mM EDTA in LANCE detection buffer containing 100 nM Phycolink Streptavidin-allophycocyanin and 2 nM Europium-anti-H3K9me2 antibody. Plates were read by EnVisionMultilabel Reader in TR-FRET mode (excitation at 320 nm, emission at 615 nm and 665 nm) after 1 hour incubation at room temperature. A ratio was calculated (665/615) for each well and fitted to determine inhibition constant (IC50).
Compound,IC50 [1] [nM],IC50 (JMJD2C) [nM]
"O=C(O)c1ccncc1NCC1CCCc2cc(N3CCCC3=O)ccc21 (centres unmarked) [Example 3, 3-({[6-(2-oxopyrrolidin-1-yl)-1,2,3,4-tetrahydronaphthalen-1-yl]methyl}amino)pyridine-4-carboxylic acid]",> 10000,100 to 1000
"O=C(O)c1ccncc1NCC1CCCc2cc(N3CCc4ccccc43)ccc21 (centres unmarked) [Example 5, 3-({[6-(2,3-dihydro-1H-indol-1-yl)-1,2,3,4-tetrahydronaphthalen-1-yl]methyl}amino)pyridine-4-carboxylic acid]",100 to 1000,1000 to 10000
"CN(c1ccc2c(c1)CCC[C@H]2CNc1cnccc1C(=O)O)c1ccccc1F [Example 6, 3-({[(1R)-6-[(2-fluorophenyl)(methyl)amino]-1,2,3,4-tetrahydronaphthalen-1-yl]methyl}amino)pyridine-4-carboxylic acid]",≤ 100,100 to 1000
"CN(c1ccc(F)cc1)c1ccc2c(c1)CCC[C@H]2CNc1cnccc1C(=O)O [Example 8, 3-({[(1R)-6-[(4-fluorophenyl)(methyl)amino]-1,2,3,4-tetrahydronaphthalen-1-yl]methyl}amino)pyridine-4-carboxylic acid]",≤ 100,100 to 1000
"CN(c1ccc(Cl)cc1)c1ccc2c(c1)CCC[C@H]2CNc1cnccc1C(=O)O [Example 9, 3-({[(1R)-6-[(4-chlorophenyl)(methyl)amino]-1,2,3,4-tetrahydronaphthalen-1-yl]methyl}amino)pyridine-4-carboxylic acid]",≤ 100,1000 to 10000
"CCN(c1ccccc1)c1ccc2c(c1)CCC[C@H]2CNc1cnccc1C(=O)O [Example 10, 3-({[(1R)-6-[ethyl(phenyl)amino]-1,2,3,4-tetrahydronaphthalen-1-yl]methyl}amino)pyridine-4-carboxylic acid]",≤ 100,100 to 1000
"CN(c1cccnc1)c1ccc2c(c1)CCC[C@H]2CNc1cnccc1C(=O)O [Example 12, 3-({[(1R)-6-[methyl(pyridin-3-yl)amino]-1,2,3,4-tetrahydronaphthalen-1-yl]methyl}amino)pyridine-4-carboxylic acid]",100 to 1000,≤ 100
"COc1ccc(N(C)c2ccc3c(c2)CCC[C@H]3CNc2cnccc2C(=O)O)cn1 [Example 13, 3-({[(1R)-6-[(6-methoxypyridin-3-yl)(methyl)amino]-1,2,3,4-tetrahydronaphthalen-1-yl]methyl}amino)pyridine-4-carboxylic acid]",100 to 1000,100 to 1000
"O=C(O)c1ccncc1NCC1CCOc2cc(Nc3ccccc3)ccc21 (centres unmarked) [Example 15, 3-({[7-(phenylamino)-3,4-dihydro-2H-1-benzopyran-4-yl]methyl}amino)pyridine-4-carboxylic acid]",1000 to 10000,100 to 1000
"CN(c1ccc2c(c1)OCC[C@H]2CNc1cnccc1C(=O)O)c1ccccc1F [Example 19, 3-({[(4R)-7-[(2-fluorophenyl)(methyl)amino]-3,4-dihydro-2H-1-benzopyran-4-yl]methyl}amino)pyridine-4-carboxylic acid]",≤ 100,100 to 1000
"Cc1cccc(-c2ccc3c(c2)OCC[C@H]3CNc2cnccc2C(=O)O)c1 [Example 30, 3-({[(4R)-7-(3-methylphenyl)-3,4-dihydro-2H-1-benzopyran-4-yl]methyl}amino)pyridine-4-carboxylic acid]",100 to 1000,100 to 1000
"Cc1c(F)cccc1-c1ccc2c(c1)OCC[C@H]2CNc1cnccc1C(=O)O [Example 42, 3-({[(4R)-7-(3-fluoro-2-methylphenyl)-3,4-dihydro-2H-1-benzopyran-4-yl]methyl}amino)pyridine-4-carboxylic acid]",100 to 1000,100 to 1000
"O=C(O)c1ccncc1NC[C@@H]1CCOc2cc(-c3cc(F)ccc3Cl)ccc21 [Example 45, 3-({[(4R)-7-(2-chloro-5-fluorophenyl)-3,4-dihydro-2H-1-benzopyran-4-yl]methyl}amino)pyridine-4-carboxylic acid]",100 to 1000,100 to 1000
"O=C(O)c1ccncc1NC[C@@H]1CCOc2cc(-c3ccccc3C(F)(F)F)ccc21 [Example 46, 3-({[(4R)-7-[2-(trifluoromethyl)phenyl]-3,4-dihydro-2H-1-benzopyran-4-yl]methyl}amino)pyridine-4-carboxylic acid]",≤ 100,100 to 1000
"O=C(O)c1ccncc1NC[C@@H]1CCOc2cc(Oc3ccccc3)ccc21 [Example 48, 3-({[(4R)-7-phenoxy-3,4-dihydro-2H-1-benzopyran-4-yl]methyl}amino)pyridine-4-carboxylic acid]",1000 to 10000,100 to 1000
"O=C(O)c1ccncc1NCC1CCOc2cc(Sc3cccs3)ccc21 (centres unmarked) [Example 49, 3-({[7-(thiophen-2-ylsulfanyl)-3,4-dihydro-2H-1-benzopyran-4-yl]methyl}amino)pyridine-4-carboxylic acid]",1000 to 10000,100 to 1000

# The remaining lines, values ahead:
IC50 [1] [nM],IC50 (JMJD2C) [nM],Compound
100 to 1000,1000 to 10000,"O=C(O)c1ccncc1NCC1CCCc2cc(N3CCCc4ccccc43)ccc21 (centres unmarked) [Example 4, 3-({[6-(1,2,3,4-tetrahydroquinolin-1-yl)-1,2,3,4-tetrahydronaphthalen-1-yl]methyl}amino)pyridine-4-carboxylic acid]"
≤ 100,100 to 1000,"CN(c1cccc(F)c1)c1ccc2c(c1)CCC[C@H]2CNc1cnccc1C(=O)O [Example 7, 3-({[(1R)-6-[(3-fluorophenyl)(methyl)amino]-1,2,3,4-tetrahydronaphthalen-1-yl]methyl}amino)pyridine-4-carboxylic acid]"
> 10000,100 to 1000,"O=C(O)c1ccncc1NCC1CCOc2cc(Br)ccc21 (centres unmarked) [Example 14, 3-{[(7-bromo-3,4-dihydro-2H-1-benzopyran-4-yl)methyl]amino}pyridine-4-carboxylic acid]"
1000 to 10000,1000 to 10000,"O=C(O)c1ccncc1NCC1CCOc2cc(-c3ccc(C(F)(F)F)cc3)ccc21 (centres unmarked) [Example 27, 3-[({7-[4-(trifluoromethyl)phenyl]-3,4-dihydro-2H-1-benzopyran-4-yl}methyl)amino]pyridine-4-carboxylic acid]"
1000 to 10000,100 to 1000,"Cc1ccc(-c2ccc3c(c2)OCC[C@H]3CNc2cnccc2C(=O)O)cc1 [Example 32, 3-({[(4R)-7-(4-methylphenyl)-3,4-dihydro-2H-1-benzopyran-4-yl]methyl}amino)pyridine-4-carboxylic acid]"
> 10000,100 to 1000,"CC(C)C#Cc1ccc2c(c1)OCCC2CNc1cnccc1C(=O)O (centres unmarked) [Example 38, 3-({[7-(3-methylbut-1-yn-1-yl)-3,4-dihydro-2H-1-benzopyran-4-yl]methyl}amino)pyridine-4-carboxylic acid]"
≤ 100,100 to 1000,"Cc1ccc(F)cc1-c1ccc2c(c1)OCC[C@H]2CNc1cnccc1C(=O)O [Example 43, 3-({[(4R)-7-(5-fluoro-2-methylphenyl)-3,4-dihydro-2H-1-benzopyran-4-yl]methyl}amino)pyridine-4-carboxylic acid]"
100 to 1000,100 to 1000,"O=C(O)c1ccncc1NC[C@@H]1CCOc2cc(-c3cccc(F)c3Cl)ccc21 [Example 44, 3-({[(4R)-7-(2-chloro-3-fluorophenyl)-3,4-dihydro-2H-1-benzopyran-4-yl]methyl}amino)pyridine-4-carboxylic acid]"
1000 to 10000,100 to 1000,"Cc1ccccc1Sc1ccc2c(c1)OCC[C@H]2CNc1cnccc1C(=O)O [Example 51, 3-({[(4R)-7-[(2-methylphenyl)sulfanyl]-3,4-dihydro-2H-1-benzopyran-4-yl]methyl}amino)pyridine-4-carboxylic acid]"
